For 23 molecules, inhibition and IC50 results are on record in patent US9062046B2, “Substituted imidazoquinoline derivatives as kinase inhibitors” (Piramal Enterprises Limited, priority 2011, dated 2015).

Experiment [1] concerns A2780 (ovarian cell line). Kind of experiment: Cytotoxicity assay (propidium iodide assay), A2780. Particulars: Homo sapiens, A2780 cells, 48 h treatment. Type of experiment: cell-based. The method, then:
(§1) The assay was designed as in the reference, Anticancer Drugs, 2002, 13, 1-8, the disclosure of which is incorporated by reference for the teaching of the assay.
(§2) Cells from cell lines A2780 (ovarian cell line) and PC3 (prostate cell line) (both from ATCC) were seeded at a density of 3000 cells/well in a white opaque 96-well plate. Following incubation at 37° C./5% CO2 for a period of 18-24 h, the cells were treated with various concentrations (stock solution was prepared in DMSO and subsequent dilutions were made in media as per ATCC guidelines) of the test compounds for a period of 48 h. At the end of treatment, the culture medium was discarded, the cells were washed with 1×PBS and 200 μl of 7 μg/ml propidium iodide was added to each well. The plates were frozen at −70° C. overnight. For analysis, the plates were warmed to RT, allowed to thaw and were read in PoleStar fluorimeter with the fluorescence setting. The percentage of viable cells in the non-treated set of wells was considered to be 100 and the percentage viability following treatment was calculated accordingly. IC50 values were calculated from graphs plotted using these percentages.

Another experiment has as its system PC3 (prostate cell line). Nature of the experiment: Cytotoxicity assay (propidium iodide assay), PC3. Type of experiment: cell-based. Particulars: Homo sapiens, PC-3, PC3 cells, 48 h treatment. The method, then:
as §1, §2

Some results are limits rather than exact numbers.

The inhibition is the share of the control response that was lost under treatment. Higher therefore signals a response far below the control. With `COc1ccc(-n2c(=NC#N)n(C)c3cnc4ccc(-c5ccncc5)cc4c32)cn1` [Example 14, N-(1-(6-methoxypyridin-3-yl)-3-methyl-8-(pyridin-4-yl)-1H-imidazo[4,5-c]quinolin-2(3H)-ylidene)cyanamide], the values for the inhibition at 1 µM (in experiment [1]; with PC3 (prostate cell line)) were at least 70% and 30 to 70%, respectively.

Take `COc1ccc(-n2c(=NC#N)n(C)c3cnc4ccc(-c5cccc(C(F)(F)F)c5)cc4c32)cn1` [Example 41, N-(1-(6-methoxypyridin-3-yl)-3-methyl-8-(3-(trifluoromethyl)phenyl)-1H-imidazo[4,5-c]quinolin-2(3H)-ylidene)cyanamide]: the inhibition at 1 µM (in experiment [1]; with PC3 (prostate cell line)) was 30 to 70% each time.

On to `COc1ccc(-n2c(=NC#N)n(C)c3cnc4ccc(-c5ccc(C#N)cc5)cc4c32)cn1` [Example 30, N-(8-(4-cyanophenyl)-1-(6-methoxypyridin-3-yl)-3-methyl-1H-imidazo[4,5-c]quinolin-2(3H)-ylidene)cyanamide], for which the inhibition at 1 µM (in experiment [1]; in the experiment with PC3 (prostate cell line)) was under 30% throughout.

As usually defined, the IC50 is the concentration at which inhibition is half-maximal. Read a low IC50 as greater potency in that assay. Turning to `Cn1c(=NC#N)n(-c2ccc(C#N)nc2)c2c3cc(-c4cnc(N)c(C(F)(F)F)c4)ccc3ncc21` [Example 10, N-(8-(6-amino-5-(trifluoromethyl)pyridin-3-yl)-1-(6-cyanopyridin-3-yl)-3-methyl-1H-imidazo[4,5-c]quinolin-2(3H)-ylidene)cyanamide], the half-inhibitory concentration (IC50) (in experiment [1]; with PC3 (prostate cell line)) was at most 0.5 µM throughout.

For `COc1ncc(-c2ccc3ncc4c(c3c2)n(-c2ccc(C(C)(C)C#N)cc2)c(=NC#N)n4C)cc1NS(=O)(=O)c1ccc(F)cc1F` [Example 135, N-(5-(2-(cyanoimino)-1-(4-(2-cyanopropan-2-yl)phenyl)-3-methyl-2,3-dihydro-1H-imidazo[4,5-c]quinolin-8-yl)-2-methoxypyridin-3-yl)-2,4-difluorobenzenesulfonamide], the inhibition at 1 µM (in experiment [1]; in the experiment on PC3 (prostate cell line)) was at least 70% throughout.

In the case of `COc1ccc(-n2c(=NC#N)n(C)c3cnc4ccc(-c5cncc(C(F)(F)F)c5)cc4c32)cn1` [Example 25, N-(1-(6-methoxypyridin-3-yl)-3-methyl-8-(5-(trifluoromethyl)pyridin-3-yl)-1H-imidazo[4,5-c]quinolin-2(3H)-ylidene)cyanamide], the inhibition at 1 µM in experiment [1] was at least 70%; in the experiment with PC3 (prostate cell line), 30 to 70%.

Consider `COc1ccc(-n2c(=NC#N)n(C)c3cnc4ccc(-c5ccccc5OC)cc4c32)cn1` [Example 49, N-(8-(2-methoxyphenyl)-1-(6-methoxypyridin-3-yl)-3-methyl-1H-imidazo[4,5-c]quinolin-2(3H)-ylidene)cyanamide], for which the inhibition at 1 µM is 30 to 70% in experiment [1] and under 30% with PC3 (prostate cell line).

Consider `COc1ccc(-c2ccc3ncc4c(c3c2)n(-c2ccc(C(C)(C)C#N)cc2)c(=NC#N)n4C)cn1` [Example 91, N-(1-(4-(2-cyanopropan-2-yl)phenyl)-8-(6-methoxypyridin-3-yl)-3-methyl-1H-imidazo[4,5-c]quinolin-2(3H)-ylidene)cyanamide], for which the IC50 (in experiment [1]; in the experiment on PC3 (prostate cell line)) was at most 0.5 µM in each case.

For the molecule `COc1ncc(-c2ccc3ncc4c(c3c2)n(-c2ccc(C(C)(C)C#N)cc2)c(=NC#N)n4C)cc1N` [Example 84, N-(8-(5-amino-6-methoxypyridin-3-yl)-1-(4-(2-cyanopropan-2-yl)phenyl)-3-methyl-1H-imidazo[4,5-c]quinolin-2(3H)-ylidene)cyanamide], the inhibition at 1 µM (in experiment [1]; in the experiment with PC3 (prostate cell line)) was at least 70% in each case.

In the case of `Cn1c(=NC#N)n(-c2ccc(C(C)(C)C#N)cc2)c2c3cc(C4=CCN(C(=O)OC(C)(C)C)CC4)ccc3ncc21` [Example 89, tert-butyl 4-(2-(cyanoimino)-1-(4-(2-cyanopropan-2-yl)phenyl)-3-methyl-2,3-dihydro-1H-imidazo[4,5-c]quinolin-8-yl)-5,6-dihydropyridine-1(2H)-carboxylate], the inhibition at 1 µM in experiment [1] was 30 to 70%; in the experiment on PC3 (prostate cell line), under 30%.

Turning to `COc1cc(-c2ccc3ncc4c(c3c2)n(-c2ccc(C(C)(C)C#N)nc2)c(=NC#N)n4C)cc(OC)c1OC` [Example 57, N-(1-(6-(2-cyanopropan-2-yl)pyridin-3-yl)-3-methyl-8-(3,4,5-trimethoxyphenyl)-1H-imidazo[4,5-c]quinolin-2(3H)-ylidene)cyanamide], the inhibition at 1 µM in experiment [1] is at least 70%; in the experiment with PC3 (prostate cell line), 30 to 70%.

`COc1ccc(-n2c(=NC#N)n(C)c3cnc4ccc(-c5ccc(N(C)C)nc5)cc4c32)cn1` [Example 2, N-(8-(6-(dimethylamino)pyridin-3-yl)-1-(6-methoxypyridin-3-yl)-3-methyl-1H-imidazo[4,5-c]quinolin-2(3H)-ylidene)cyanamide]: the 50% inhibitory concentration (IC50) (in experiment [1]; with PC3 (prostate cell line)) was at most 0.5 µM throughout.

For `Cn1c(=NC#N)n(-c2cncc(-c3ccccc3)c2)c2c3cc(-c4cnc(N)c(C(F)(F)F)c4)ccc3ncc21` [Example 92, N-(8-(6-amino-5-(trifluoromethyl)pyridin-3-yl)-3-methyl-1-(5-phenylpyridin-3-yl)-1H-imidazo[4,5-c]quinolin-2(3H)-ylidene)cyanamide], the IC50 (in experiment [1]; with PC3 (prostate cell line)) was at most 0.5 µM each time.

Turning to `COc1cc(-c2ccc3ncc4c(c3c2)n(-c2ccc(C(C)(C)C#N)cc2)c(=NC#N)n4C)cc(OC)c1OC` [Example 88, N-(1-(4-(2-cyanopropan-2-yl)phenyl)-3-methyl-8-(3,4,5-trimethoxyphenyl)-1H-imidazo[4,5-c]quinolin-2(3H)-ylidene)cyanamide], the inhibition at 1 µM in experiment [1] was at least 70%; in the experiment on PC3 (prostate cell line), 30 to 70%.

On to `COc1ccc(-n2c(=NC#N)n(C)c3cnc4ccc(-c5cnc(N)c(C(F)(F)F)c5)cc4c32)c(C)n1` [Example 9, N-(8-(6-amino-5-(trifluoromethyl)pyridin-3-yl)-1-(6-methoxy-2-methylpyridin-3-yl)-3-methyl-1H-imidazo[4,5-c]quinolin-2(3H)-ylidene)cyanamide], for which the concentration for half-maximal inhibition (IC50) (in experiment [1]; in the experiment with PC3 (prostate cell line)) was at most 0.5 µM throughout.

For the molecule `COc1ncc(-c2ccc3ncc4c(c3c2)n(-c2ccc(C(C)(C)C#N)nc2)c(=NC#N)n4C)c(OC)n1` [Example 55, N-(1-(6-(2-cyanopropan-2-yl)pyridin-3-yl)-8-(2,4-dimethoxypyrimidin-5-yl)-3-methyl-1H-imidazo[4,5-c]quinolin-2(3H)-ylidene)cyanamide], the inhibition at 1 µM in experiment [1] is at least 70%; with PC3 (prostate cell line) it was 30 to 70%.

`COc1cc(OC)cc(-n2c(=NC#N)n(C)c3cnc4ccc(-c5cnc(OC)c(N)c5)cc4c32)c1` [Example 99, N-(8-(5-amino-6-methoxypyridin-3-yl)-1-(3,5-dimethoxyphenyl)-3-methyl-1H-imidazo[4,5-c]quinolin-2(3H)-ylidene)cyanamide]: the half-maximal inhibitory concentration (IC50) in experiment [1] was at most 0.5 µM; in the experiment on PC3 (prostate cell line) it was 0.5 to 2 µM.

For the molecule `COc1ccccc1-c1ccc2ncc3c(c2c1)n(-c1ccc(C(C)(C)C#N)nc1)c(=NC#N)n3C` [Example 53, N-(1-(6-(2-cyanopropan-2-yl)pyridin-3-yl)-8-(2-methoxyphenyl)-3-methyl-1H-imidazo[4,5-c]quinolin-2(3H)-ylidene)cyanamide], the inhibition at 1 µM in experiment [1] is 30 to 70%; with PC3 (prostate cell line), under 30%.

Turning to `Cn1c(=NC#N)n(-c2ccc(OC(F)(F)F)cc2)c2c3cc(-c4cnc(N)c(C(F)(F)F)c4)ccc3ncc21` [Example 105, N-(8-(6-amino-5-(trifluoromethyl)pyridin-3-yl)-3-methyl-1-(4-(trifluoromethoxy)phenyl)-1H-imidazo[4,5-c]quinolin-2(3H)-ylidene)cyanamide], the IC50 (in experiment [1]; with PC3 (prostate cell line)) was at most 0.5 µM each time.

In the case of `COc1ccc(-n2c(=NC#N)n(C)c3cnc4ccc(-c5cnc(OC)c(N)c5)cc4c32)c(OC)c1` [Example 13, N-(8-(5-amino-6-methoxypyridin-3-yl)-1-(2,4-dimethoxyphenyl)-3-methyl-1H-imidazo[4,5-c]quinolin-2(3H)-ylidene)cyanamide], the inhibition at 1 µM (in experiment [1]; in the experiment with PC3 (prostate cell line)) was at least 70% in each case.

Regarding `CC(=O)N(C(C)=O)c1ncc(-c2ccc3ncc4c(c3c2)n(-c2ccc(C(C)(C)C#N)cc2)c(=NC#N)n4C)cc1C(F)(F)F` [Example 131, N-acetyl-N-(5-(2-(cyanoimino)-1-(4-(2-cyanopropan-2-yl)phenyl)-3-methyl-2,3-dihydro-1H-imidazo[4,5-c]quinolin-8-yl)-3-(trifluoromethyl)pyridin-2-yl)acetamide], the inhibition at 1 µM (in experiment [1]; with PC3 (prostate cell line)) was 30 to 70% each time.

`COc1ccc(-n2c(=NC#N)n(C)c3cnc4ccc(-c5cccc(Cl)c5)cc4c32)cn1` [Example 28, N-(8-(3-chlorophenyl)-1-(6-methoxypyridin-3-yl)-3-methyl-1H-imidazo[4,5-c]quinolin-2(3H)-ylidene)cyanamide]: the inhibition at 1 µM is 30 to 70% in experiment [1] and under 30% in the experiment on PC3 (prostate cell line).

As to `CC(C)(C#N)c1ccc(-n2c(=NC#N)[nH]c3cnc4ccc(-c5cccnc5)cc4c32)cc1` [Example 85, N-(1-(4-(2-cyanopropan-2-yl)phenyl)-8-(pyridin-3-yl)-1H-imidazo[4,5-c]quinolin-2(3H)-ylidene)cyanamide], the inhibition at 1 µM (in experiment [1]; in the experiment with PC3 (prostate cell line)) was under 30% throughout.
